In ChEMBL document CHEMBL5620431, “2,4-Diaryl-pyrimido[1,2-a]benzimidazole derivatives as novel anticancer agents endowed with potent anti-leukemia activity: Synthesis, biological evaluation and kinase profiling” (Eur J Med Chem, 2023) one finds IC50 and GI50 data, which are given here for seven compounds.

The target of experiment [1] is T1, Receptor-type tyrosine-protein kinase FLT3 (Homo sapiens, UniProt P36888).
T1 sequence (P36888 whole entry): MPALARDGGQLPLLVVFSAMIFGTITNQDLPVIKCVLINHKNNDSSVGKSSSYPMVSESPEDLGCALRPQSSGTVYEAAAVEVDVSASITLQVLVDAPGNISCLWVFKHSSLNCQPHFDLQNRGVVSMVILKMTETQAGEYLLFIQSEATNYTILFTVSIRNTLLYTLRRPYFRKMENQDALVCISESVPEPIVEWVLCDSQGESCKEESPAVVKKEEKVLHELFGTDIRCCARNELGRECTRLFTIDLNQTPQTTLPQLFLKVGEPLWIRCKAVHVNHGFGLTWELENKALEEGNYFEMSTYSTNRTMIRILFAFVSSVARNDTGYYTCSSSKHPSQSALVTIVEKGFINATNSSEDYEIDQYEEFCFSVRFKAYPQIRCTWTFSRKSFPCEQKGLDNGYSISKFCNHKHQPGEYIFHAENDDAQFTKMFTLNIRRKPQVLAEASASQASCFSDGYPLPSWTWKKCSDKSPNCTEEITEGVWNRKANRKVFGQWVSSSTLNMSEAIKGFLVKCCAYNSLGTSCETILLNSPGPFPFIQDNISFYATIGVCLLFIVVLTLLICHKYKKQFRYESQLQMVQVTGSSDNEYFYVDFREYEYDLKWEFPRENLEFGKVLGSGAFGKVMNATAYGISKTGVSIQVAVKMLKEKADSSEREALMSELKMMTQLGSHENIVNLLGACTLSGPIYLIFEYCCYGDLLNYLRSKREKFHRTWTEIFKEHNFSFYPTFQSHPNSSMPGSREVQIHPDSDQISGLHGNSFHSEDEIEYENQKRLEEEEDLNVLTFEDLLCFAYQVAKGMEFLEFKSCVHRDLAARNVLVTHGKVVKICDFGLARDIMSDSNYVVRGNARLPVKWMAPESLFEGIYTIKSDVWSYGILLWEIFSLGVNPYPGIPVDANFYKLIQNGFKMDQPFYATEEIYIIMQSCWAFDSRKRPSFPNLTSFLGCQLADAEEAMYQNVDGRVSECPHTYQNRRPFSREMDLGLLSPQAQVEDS
The experiment is described as follows: Inhibition of FLT3 (unknown origin).

The subject of a further experiment is BaF3. The experiment is described as follows: Antiproliferative activity against TEL-BMX transformed mouse BaF3 cells assessed as inhibition of cell proliferation.
A further experiment has as its system CCRF-CEM. In words: Antiproliferative activity against human CCRF-CEM cells assessed as cell growth inhibition incubated for 48 hrs by MTT assay. It is filed as functional.

The pIC50 is the IC50 on a negative log10 scale, so that one unit is a factor of ten. Usually GI50 stands for the concentration that inhibits growth by half.

pIC50: −log10 of the molar value.

Compound `Cc1oncc1C(=O)Nc1ccc2[nH]c(-c3cc(N4CCOCC4)cc(C(F)(F)F)c3)nc2c1` gave a pIC50 in experiment [1] of 6.31.

For the compound `Cc1oncc1C(=O)Nc1ccc2[nH]c(-c3cnn(-c4ccccc4)c3C(F)(F)F)nc2c1`, the pIC50 in experiment [1] was 6.31.

The compound `Cc1cn(-c2cc(-c3nc4cc(NC(=O)c5cnoc5C)ccc4[nH]3)cc(C(F)(F)F)c2)cn1` gave a negative-log IC50 (pIC50) in experiment [1] of 6.31.

Turning to `C=CC(=O)Nc1cc(-n2c(=O)ccc3cnc4ccc(-c5ccc(NS(C)(=O)=O)cc5)cc4c32)ccc1C`, the negative logarithm of the IC50 (pIC50) with BaF3 was 7.60.

For `CCOC(=O)c1cnc2c(-c3nc4ccccc4s3)c(NC)nn2c1O`, the GI50 with CCRF-CEM turned out to be 16300 nM.

In experiment [1], `Cc1oncc1C(=O)Nc1ccc2[nH]c(-c3cc(-n4cncc4C)cc(C(F)(F)F)c3)nc2c1` gave a negative-log IC50 (pIC50) of 6.31.

`Cc1oncc1C(=O)Nc1ccc2[nH]c(-c3cc(-n4ccnc4C)cc(C(F)(F)F)c3)nc2c1` gave a pIC50 in experiment [1] of 6.31.
